Experimental data from PMC12023841, “Unlocking the Gates: A Novel Diagnostic Molecule for Quantifying Efflux Levels in Gram‐Positive Bacteria” (Advanced Healthcare Materials, 2025).
Values after ≈ are worked out from the molar mass of the structure shown. “Also recorded” adds a separate entry of the source. Like-named read-outs stand apart in the source and are kept apart here.

How the values were obtained:
[1] = tested on: Staphylococcus aureus ATCC 25923 (Reference, basal); test: MIC, broth microdilution (CLSI); type: cell-based; settings: ATCC25923
[2] = tested on: SA 1199 (Wild‐type, basal); test: MIC, broth microdilution (CLSI); type: cell-based; settings: Staphylococcus aureus
[3] = tested on: SA 1199‐B (norA overexpressing); test: microbe, parasite or virus in culture; type: cell-based, Staphylococcus aureus; settings: Staphylococcus aureus
SA‐K1758 (∆norA) = test: microbe, parasite or virus in culture; type: cell-based; settings: Staphylococcus aureus
[4] = Solution‐state stability test in MH‐II broth; type: physicochemical; settings: 512–1 µg mL^−1, 37 °C for a day, centrifuged
Experimental: Before accessing the minimal inhibitory concentration (MIC), each phenazinium derivative was subjected to a solution‐state stability test. For this experiment, each derivative was solubilized in DMSO to achieve a primary stock solution (20 mg mL^−1). This stock was further diluted in MilliQ to achieve a working stock solution (10 mg mL^−1). […] The tubes were placed in an incubator at 37 °C for a day and later centrifuged at 25 000 rpm for 25 min.

S. aureus strains [5] = settings: cited from earlier work
S. epidermidis strains = tested on: S. epidermidis strains; parameters: method as in earlier work; settings: cited from earlier work; also: key: S: Susceptible; R: Resistant; I: Intermediate
S. aureus strains [6] = settings: cited from earlier work; remark: listed apart in the source
For Susceptibility profile in this document: key: S: Susceptible; R: Resistant; I: Intermediate.

SMILES: CCCCNc1ccc2nc3cc(NCCC)c(N)cc3[n+](CCC)c2c1 [5a1]
- MIC [1]: 1 µg/mL
- MIC [2]: 1 µg/mL
- MIC [3]: 2 µg/mL
- MIC (SA‐K1758 (∆norA)): 0.5 µg/mL
- Solution state stability (concentration at which visible precipitation was observed) [4]: Visible precipitation was observed at 128 µg mL^−1 and beyond

SMILES: CCCCNc1ccc2nc3cc(NCCCC)c(N)cc3[n+](CCC)c2c1 [5a2]
- MIC [1]: 1 µg/mL
- MIC [2]: 1 µg/mL
- MIC [3]: 2 µg/mL
- MIC (SA‐K1758 (∆norA)): 0.25 µg/mL
- Solution state stability (concentration at which visible precipitation was observed) [4]: Visible precipitation was observed at 512 µg mL^−1 and beyond

SMILES: CCCCCCCCNc1cc2nc3ccc(NCCCC)cc3[n+](CCC)c2cc1N [5a3]
- MIC [1]: 64 µg/mL
- MIC [2]: 64 µg/mL
- MIC [3]: 64 µg/mL
- MIC (SA‐K1758 (∆norA)): 8 µg/mL
- Solution state stability (concentration at which visible precipitation was observed) [4]: Visible precipitation was observed at 128 µg mL^−1 and beyond

SMILES: CCCCCCCCNc1cc2nc3ccc(NCCCC)cc3[n+](CCCCCCCC)c2cc1N [5b3]
- MIC [1]: 32 µg/mL
- MIC [2]: 32 µg/mL
- MIC (SA‐K1758 (∆norA)): 32 µg/mL
- Solution state stability (concentration at which visible precipitation was observed) [4]: Visible precipitation was observed at 128 µg mL^−1 and beyond

SMILES: CCCCCCCC[n+]1c2cc(NCCCC)ccc2nc2cc(NCCOC)c(N)cc21 [5b4]
- MIC [1]: 1 µg/mL
- MIC [2]: 1 µg/mL
- MIC [3]: 1 µg/mL
- MIC (SA‐K1758 (∆norA)): 2 µg/mL
- Solution state stability (concentration at which visible precipitation was observed) [4]: excellent solubility and stability; also recorded: Stable

SMILES: CCCCNc1cc2nc3ccc(NCCC)cc3[n+](CCC)c2cc1N [5c1]
- MIC [1]: 2 µg/mL
- MIC [2]: 2 µg/mL
- MIC [3]: 2 µg/mL
- MIC (SA‐K1758 (∆norA)): 0.5 µg/mL
- Solution state stability (concentration at which visible precipitation was observed) [4]: Stable

SMILES: CCCNc1ccc2nc3cc(NCCOC)c(N)cc3[n+](CCC)c2c1 [5c2]
- MIC [1]: 4 µg/mL
- MIC [2]: 8 µg/mL
- MIC [3]: 8 µg/mL
- MIC (SA‐K1758 (∆norA)): 4 µg/mL
- Solution state stability (concentration at which visible precipitation was observed) [4]: excellent solubility and stability; also recorded: Stable

SMILES: CCCCNc1ccc2nc3cc(NCCC)c(N)cc3[n+](CCCC)c2c1 [5d1]
- MIC [1]: 16 µg/mL
- MIC [2]: 16 µg/mL
- MIC [3]: 16 µg/mL
- MIC (SA‐K1758 (∆norA)): 8 µg/mL
- Solution state stability (concentration at which visible precipitation was observed) [4]: Visible precipitation was observed at 128 µg mL^−1 and beyond

SMILES: CCCCNc1ccc2nc3cc(NCCCC)c(N)cc3[n+](CCCC)c2c1 [5d2]
- MIC [1]: 1 µg/mL
- MIC [2]: 1 µg/mL
- MIC [3]: 0.5 to 1 µg/mL
- MIC (SA‐K1758 (∆norA)): 0.5 µg/mL
- Solution state stability (concentration at which visible precipitation was observed) [4]: Visible precipitation was observed at 512 µg mL^−1 and beyond.

SMILES: CCCCCCCCNc1ccc2nc3cc(NCCC)c(N)cc3[n+](CCCCCCCC)c2c1 [5e1]
- MIC [1]: 16 µg/mL
- MIC [2]: 16 µg/mL
- MIC [3]: 16 µg/mL
- MIC (SA‐K1758 (∆norA)): 8 µg/mL
- Solution state stability (concentration at which visible precipitation was observed) [4]: Visible precipitation was observed at 128 µg mL^−1

SMILES: CCCCCCCCNc1ccc2nc3cc(NC(C)(C)C)c(N)cc3[n+](CCCCCCCC)c2c1 [5e2]
- MIC [1]: 8 µg/mL
- MIC [2]: 8 µg/mL
- MIC [3]: 8 µg/mL
- MIC (SA‐K1758 (∆norA)): 8 µg/mL
- Solution state stability (concentration at which visible precipitation was observed) [4]: Stable

SMILES: CCCCCCCCNc1ccc2nc3cc(NCCCCCCCC)c(N)cc3[n+](CCCCCCCC)c2c1 [5e3]
- MIC [1]: 32 µg/mL
- MIC [2]: 64 µg/mL
- MIC [3]: 64 µg/mL
- MIC (SA‐K1758 (∆norA)): 64 µg/mL
- Solution state stability (concentration at which visible precipitation was observed) [4]: Visible precipitation was observed at 128 µg mL^−1

SMILES: O=C(O)c1cn(C2CC2)c2cc(N3CCNCC3)c(F)cc2c1=O [CIP, Ciprofloxacin]
- Susceptibility profile (S. aureus strains [5]; strain ATCC25923, ref [4]): I
- Susceptibility profile (S. aureus strains [5]; strain ATCC25923_EtBr, ref [4]): I
- Susceptibility profile (S. aureus strains [5]; strain SA-1199, ref [2]): S
- Susceptibility profile (S. aureus strains [5]; strain SA-1199B, ref [2]): R
- Susceptibility profile (S. aureus strains [5]; strain SA-K1712, ref [3]): S
- Susceptibility profile (S. aureus strains [5]; strain SA-K1748, ref [3]): R
- Susceptibility profile (S. aureus strains [5]; strain SA-K1758, ref [2]): S
- Susceptibility profile (S. aureus strains [5]; strain SA-K2068, ref [3]): S
- Susceptibility profile (S. epidermidis strains): I

SMILES: CC[n+]1c(-c2ccccc2)c2cc(N)ccc2c2ccc(N)cc21 [EtBrCW, Ethidium bromide]
- Efflux detection method EtBrCW (S. aureus strains [6]; strain ATCC25923, ref [4]): Negative
- Efflux detection method EtBrCW (S. aureus strains [6]; strain ATCC25923_EtBr, ref [4]): Positive (isolates were considered positive if they exhibited fluorescence at the highest EtBr concentration tested (> 2.5 mg/L))
- Efflux detection method EtBrCW (S. aureus strains [6]; strain BIOS-H1, ref [7]): Negative
- Efflux detection method EtBrCW (S. aureus strains [6]; strain BIOS-H2, ref [7]): Negative
- Efflux detection method EtBrCW (S. aureus strains [6]; strain BIOS-H3, ref [7]): Negative
- Efflux detection method EtBrCW (S. aureus strains [6]; strain BIOS-H5, ref [7]): Negative
- Efflux detection method EtBrCW (S. aureus strains [6]; strain BIOS-H6, ref [7]): Negative
- Efflux detection method EtBrCW (S. aureus strains [6]; strain BIOS-H12, ref [7]): Negative
- Efflux detection method EtBrCW (S. aureus strains [6]; strain BIOS-H13, ref [7]): Negative
- Efflux detection method EtBrCW (S. aureus strains [6]; strain BIOS-H17, ref [7]): Negative
- Efflux detection method EtBrCW (S. aureus strains [6]; strain BIOS-H20, ref [7]): Negative
- Efflux detection method EtBrCW (S. aureus strains [6]; strain BIOS-H21, ref [7]): Negative
- Efflux detection method EtBrCW (S. aureus strains [6]; strain BIOS-H22, ref [7]): Negative
- Efflux detection method EtBrCW (S. aureus strains [6]; strain BIOS-H25, ref [7]): Negative
- Efflux detection method EtBrCW (S. aureus strains [6]; strain BIOS-H28, ref [7]): Negative
- Efflux detection method EtBrCW (S. aureus strains [6]; strain BIOS-H29, ref [7]): Negative
- Efflux detection method EtBrCW (S. aureus strains [6]; strain BIOS-H30, ref [7]): Negative
- Efflux detection method EtBrCW (S. aureus strains [6]; strain BIOS-H32, ref [7]): Negative
- Efflux detection method EtBrCW (S. aureus strains [6]; strain BIOS-V21, ref [8]): Negative
- Efflux detection method EtBrCW (S. aureus strains [6]; strain BIOS-V31, ref [8]): Negative
- Efflux detection method EtBrCW (S. aureus strains [6]; strain BIOS-V60, ref [8]): Negative
- Efflux detection method EtBrCW (S. aureus strains [6]; strain BIOS-V61, ref [8]): Negative
- Efflux detection method EtBrCW (S. aureus strains [6]; strain BIOS-V62, ref [8]): Negative
- Efflux detection method EtBrCW (S. aureus strains [6]; strain BIOS-V74, ref [8]): Negative
- Efflux detection method EtBrCW (S. aureus strains [6]; strain BIOS-V75, ref [8]): Negative
- Efflux detection method EtBrCW (S. aureus strains [6]; strain BIOS-V85, ref [8]): Negative
- Efflux detection method EtBrCW (S. aureus strains [6]; strain BIOS-V118, ref [8]): Negative
- Efflux detection method EtBrCW (S. aureus strains [6]; strain BIOS-V128, ref [8]): Negative
- Efflux detection method EtBrCW (S. aureus strains [6]; strain BIOS-V147, ref [8]): Negative
- Efflux detection method EtBrCW (S. aureus strains [6]; strain BIOS-V151, ref [8]): Negative
- Efflux detection method EtBrCW (S. aureus strains [6]; strain BIOS-V156, ref [8]): Negative
- Efflux detection method EtBrCW (S. aureus strains [6]; strain BIOS-V157, ref [8]): Negative
- Efflux detection method EtBrCW (S. aureus strains [6]; strain BIOS-V158, ref [8]): Negative
- Efflux detection method EtBrCW (S. aureus strains [6]; strain BIOS-V203, ref [8]): Negative
- Efflux detection method EtBrCW (S. aureus strains [6]; strain BIOS-V245, ref [8]): Negative
- Efflux detection method EtBrCW (S. aureus strains [6]; strain BIOS-V250, ref [8]): Negative
- Efflux detection method EtBrCW (S. aureus strains [6]; strain BIOS-V257, ref [8]): Negative
- Efflux detection method EtBrCW (S. aureus strains [6]; strain BIOS-V279, ref [8]): Negative
- Efflux detection method EtBrCW (S. aureus strains [6]; strain BIOS-V295, ref [8]): Negative
- Efflux detection method EtBrCW (S. aureus strains [6]; strain SA-1199, ref [2]): Negative
- Efflux detection method EtBrCW (S. aureus strains [6]; strain SA-1199B, ref [2]): Positive (isolates were considered positive if they exhibited fluorescence at the highest EtBr concentration tested (> 2.5 mg/L))
- Efflux detection method EtBrCW (S. aureus strains [6]; strain SA-K1748, ref [3]): Positive (isolates were considered positive if they exhibited fluorescence at the highest EtBr concentration tested (> 2.5 mg/L))
- Efflux detection method EtBrCW (S. aureus strains [6]; strain SA-K1758, ref [2]): Negative
- Efflux detection method EtBrCW (S. aureus strains [6]; strain SM 1, ref [6]): Positive (isolates were considered positive if they exhibited fluorescence at the highest EtBr concentration tested (> 2.5 mg/L))
- Efflux detection method EtBrCW (S. aureus strains [6]; strain SM 2, ref [6]): Negative^* (Isolates marked with (*) displayed fluorescence at intermediate EtBr concentrations (1–2 mg/L))
- Efflux detection method EtBrCW (S. aureus strains [6]; strain SM 3, ref [6]): Negative^* (Isolates marked with (*) displayed fluorescence at intermediate EtBr concentrations (1–2 mg/L))
- Efflux detection method EtBrCW (S. aureus strains [6]; strain SM 4, ref [6]): Negative
- Efflux detection method EtBrCW (S. aureus strains [6]; strain SM 5, ref [6]): Negative
- Efflux detection method EtBrCW (S. aureus strains [6]; strain SM 6, ref [6]): Negative
- Efflux detection method EtBrCW (S. aureus strains [6]; strain SM 7, ref [6]): Negative
- Efflux detection method EtBrCW (S. aureus strains [6]; strain SM 8, ref [6]): Negative^* (Isolates marked with (*) displayed fluorescence at intermediate EtBr concentrations (1–2 mg/L))

SMILES: CCn1cc(C(=O)O)c(=O)c2cc(F)c(N3CCNCC3)cc21 [NOR, norfloxacin, reference compound]
- MIC [1]: 2 µg/mL (≈ 6.26 µM)
- MIC ([2]; SA 1199 (Wild‐type, basal), read-out: MIC): 2 µg/mL (≈ 6.26 µM)
- MIC [3]: 32 µg/mL (≈ 100 µM)
- MIC (SA‐K1758 (∆norA)): 0.25 µg/mL (≈ 0.783 µM)
